Assay results taken from PubChem BioAssay (NCI).
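How tested: cells in 96-well plates exposed to compound for 48 hours at five concentrations. TGI is the concentration that stops growth completely.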

Tests used:
Assay in all cases: NCI tumour cell line growth inhibition, 48 h
[1] = tested on: DLD-1 colon
[2] = tested on: SF-539 CNS
[3] = tested on: P388/ADR leukemia
[4] = tested on: COLO 205 colon
[5] = tested on: HL-60(TB) leukemia
[6] = tested on: NCI-H460 lung
[7] = tested on: SNB-19 CNS
[8] = tested on: DMS 114 small cell lung
[9] = tested on: SK-MEL-2 melanoma
[10] = tested on: NCI-H522 lung
[11] = tested on: SF-295 CNS
[12] = tested on: UO-31 renal
[13] = tested on: UACC-257 melanoma
[14] = tested on: IGROV1 ovarian
[15] = tested on: HOP-18 NSCLC
[16] = tested on: SN12K1 renal
[17] = tested on: OVCAR-5 ovarian
[18] = tested on: A549 NSCLC
[19] = tested on: DMS 273 small cell lung
[20] = tested on: XF 498 CNS
[21] = tested on: EKVX NSCLC
[22] = tested on: HCT-15 colon
[23] = tested on: K-562 leukemia
[24] = tested on: RXF 393 renal
[25] = tested on: UACC-62 melanoma
[26] = tested on: A498 renal
[27] = tested on: NCI/ADR-RES ovarian
[28] = tested on: MCF7 breast
[29] = tested on: SN12C renal
[30] = tested on: CCRF-CEM leukemia
[31] = tested on: SF-268 CNS
[32] = tested on: OVCAR-8 ovarian
[33] = tested on: KM12 colon
[34] = tested on: NCI-H226 lung
[35] = tested on: KM20L2 colon
[36] = tested on: SK-MEL-5 melanoma
[37] = tested on: MALME-3M melanoma
[38] = tested on: SK-MEL-28 melanoma
[39] = tested on: CAKI-1 renal
[40] = tested on: OVCAR-4 ovarian
[41] = tested on: HT29 colon
[42] = tested on: SK-OV-3 ovarian
[43] = tested on: LOX IMVI melanoma
[44] = tested on: NCI-H23 lung
[45] = tested on: HCT-116 colon
[46] = tested on: U251 CNS
[47] = tested on: SNB-78 CNS
[48] = tested on: OVCAR-3 ovarian
[49] = tested on: M19-MEL melanoma
[50] = tested on: HOP-92 NSCLC
[51] = tested on: HCC-2998 colon
[52] = tested on: P388 leukemia
[53] = tested on: HOP-62 NSCLC
[54] = tested on: SW-620 colon
[55] = tested on: SNB-75 CNS

`CC(C)(C)c1ccc2c(c1)OP1(Oc3cccc4cccnc34)(O2)Oc2ccc(C(C)(C)C)cc2O1` showed a TGI [1] of 21.2 µM, a TGI [2] of 30.2 µM and a TGI [3] of 4.69 µM. The TGI [4] was 9.02 µM, the TGI [5] was 6.82 µM and the TGI [6] was 12.7 µM. For the same compound, the TGI [7] was greater than 100 µM, the TGI [8] was 5.97 µM and the TGI [9] was 43.8 µM. It also gave a TGI [10] of 26.4 µM, a TGI [11] of 42.6 µM and a TGI [12] of 13.4 µM. It also gave a TGI [13] greater than 30.4 µM, a TGI [14] of 18.3 µM and a TGI [15] greater than 60.5 µM. It also gave a TGI [16] of 14.2 µM, a TGI [17] of 32 µM and a TGI [18] greater than 54.7 µM. For the same compound, the TGI [19] was 13.8 µM, the TGI [20] was 7.56 µM and the TGI [21] was 35.9 µM. For the same compound, the TGI [22] was 15.3 µM, the TGI [23] was 37.5 µM and the TGI [24] was 16.9 µM. It also gave a TGI [25] of 12.2 µM, a TGI [26] of 34.9 µM and a TGI [27] of 11.1 µM. It also gave a TGI [28] of 5.48 µM, a TGI [29] of 52.9 µM and a TGI [30] greater than 25.2 µM. For the same compound, the TGI [31] was 26.7 µM, the TGI [32] was greater than 100 µM and the TGI [33] was 21.3 µM. It also gave a TGI [34] of 30.9 µM, a TGI [35] of 15.4 µM and a TGI [36] of 13.7 µM. The TGI [37] was 51.3 µM, the TGI [38] was greater than 84.9 µM and the TGI [39] was greater than 23.5 µM. The TGI [40] was 6.14 µM, the TGI [41] was 15.4 µM and the TGI [42] was greater than 92.1 µM. It also gave a TGI [43] of 17.7 µM, a TGI [44] of 10.2 µM and a TGI [45] of 15.2 µM. The TGI [46] was 43.8 µM, the TGI [47] was greater than 100 µM and the TGI [48] was 6.44 µM. For the same compound, the TGI [49] was 33.5 µM, the TGI [50] was greater than 100 µM and the TGI [51] was 24.1 µM. It also gave a TGI [52] of 2.64 µM, a TGI [53] of 62.1 µM and a TGI [54] greater than 31.8 µM. It also gave a TGI [55] greater than 54.2 µM.

Work on `O=C1c2cccc3cc4ccccc4c(c23)C(=O)N1CCNCCN1C(=O)c2cccc3cc4ccccc4c(c23)C1=O` yielded a TGI [1] of 3.8 µM, a TGI [2] of 2.2 µM and a TGI [3] of 0.611 µM. For the same compound, the TGI [4] was 2.22 µM, the TGI [5] was 0.619 µM and the TGI [6] was 0.278 µM. It also gave a TGI [7] of 2.11 µM, a TGI [8] of 0.78 µM and a TGI [9] of 3.15 µM. It also gave a TGI [10] of 3.6 µM, a TGI [11] of 0.906 µM and a TGI [12] of 1.57 µM. For the same compound, the TGI [13] was 2.74 µM, the TGI [14] was 3.56 µM and the TGI [15] was 0.879 µM. For the same compound, the TGI [16] was 6.96 µM, the TGI [17] was 1.77 µM and the TGI [18] was 0.982 µM. The TGI [19] was 1 µM, the TGI [20] was 0.82 µM and the TGI [21] was 2.23 µM. For the same compound, the TGI [22] was 1.53 µM, the TGI [23] was 1.47 µM and the TGI [24] was 1.82 µM. The TGI [25] was 1.13 µM, the TGI [26] was 2.26 µM and the TGI [27] was 3.11 µM. For the same compound, the TGI [28] was 5.17 µM, the TGI [29] was 1.59 µM and the TGI [30] was 1.04 µM. The TGI [31] was 2.55 µM, the TGI [32] was 2.31 µM and the TGI [34] was 6.12 µM. For the same compound, the TGI [35] was 2.22 µM, the TGI [36] was 1.84 µM and the TGI [37] was 1.77 µM. It also gave a TGI [38] of 2.65 µM, a TGI [39] of 1.04 µM and a TGI [40] of 2.14 µM. The TGI [41] was 1.69 µM, the TGI [42] was 5.8 µM and the TGI [43] was 1.27 µM. The TGI [44] was 1.21 µM, the TGI [45] was 1.98 µM and the TGI [46] was 1.24 µM. The TGI [47] was 1.82 µM, the TGI [48] was 2.41 µM and the TGI [49] was 1.78 µM. For the same compound, the TGI [50] was 1.75 µM, the TGI [51] was 2.23 µM and the TGI [53] was 4.92 µM. For the same compound, the TGI [54] was 1.87 µM and the TGI [55] was 1.27 µM.
